Results taken from patent US9635854B2, “Controlling red rice with mesotrione” (FMC Corporation, priority 2014, dated 2017).
Read-outs that look alike come from different tables or passages of the source.

What was measured:
[1] = system: Rice (Oryza sativa) 'Cybonee'; details: for Percent rice injury Cybonet: in vivo
Experimental: (§1) Rice (Oryza sativa) crop varieties (‘Cybonee’, ‘Jupiter’, and ‘Taggart’) and red rice (Oryza sativa) were planted in 6 inch plastic pots containing sterile top soil. Eight to ten seeds of each species were seeded at 12 o'clock, 3 o'clock, 6 o'clock or 9 o'clock around the pot. The pots were watered after planting. […] The test solutions were applied using a compressed air track spray chamber at 30 gallons per acre using a Teejet 8001E nozzle at 40 PSI, three replicates per test rate. After treatment, the pots were watered lightly and transferred to trays in a greenhouse. After the plants were two inches in height the trays were flooded with water and maintained as such for 14 days. The trays were emptied of water and the pots were maintained by regular watering for 4 more days. At 14, 21 and 28 days after treatment (DAT) the plants were evaluated versus untreated control pots containing the same rice and weeds using a scale of 0% (no control) to 100% (complete plant death).

[2] = system: Rice (Oryza sativa) 'Jupiter'; details: for Percent rice injury Jupiter: in vivo
Experimental: as §1

[3] = system: Rice (Oryza sativa) 'Taggart'; details: for Percent rice injury Taggart: in vivo
Experimental: as §1

red rice (Oryza sativa) [4] = assay: Pre-emergent evaluation on flooded rice, red rice control; assay type: in vivo; details: 200 g ai/ha; for Percent red rice control: PRE, direct-seeded flooded rice
Experimental: as §1

[5] = system: Rice (Oryza sativa) 'Cybonee'; details: for Percent rice injury Cybonet: Cybonee, Oryza sativa (rice), in vivo
Excerpt: (§2) Rice (Oryza sativa) was planted in 6″ by 10″ fiber flats filled with sterile top soil. Five rows were made in each flat and the three rice varieties (′Cybonee, ‘Jupiter’, and ‘Taggart’) were planted in the center 3 rows and a row of red rice (Oryza sativa) was planted on either end of the flat. The flats were watered after planting. After application flats were placed in the greenhouse and lightly watered. […] The flats were moved to a greenhouse and watered and fertilized routinely. Studies were conducted using randomized complete block design with four replications. In both studies, visual percent red rice control and rice injury were recorded at 14, 21, and 28 days after treatment (DAT), using a scale of 0 (no control/injury) to 100 (complete plant death).

[6] = system: Rice (Oryza sativa) 'Jupiter'; details: for Percent rice injury Jupiter: Oryza sativa (rice), in vivo
Excerpt: as §2

[7] = system: Rice (Oryza sativa) 'Taggart'; details: for Percent rice injury Taggart: Oryza sativa (rice), in vivo
Excerpt: as §2

red rice (Oryza sativa) [8] = assay: Pre-emergent evaluation on dryland rice, red rice control; assay type: in vivo; details: 200 g ai/ha; for Percent red rice control: PRE, direct-seeded dryland rice
Excerpt: as §2

CC1(C)CON(Cc2ccccc2Cl)C1=O [Clomazone, clomazone]
Percent rice injury Cybonet ([1]; Cybonee, Oryza sativa (rice), 21 days after treatment): 58 A %
Percent rice injury Cybonet ([1]; Cybonee, Oryza sativa (rice), 28 days after treatment): 49 AB %
rice injury, 'Cybonee' ([1]; PRE flooded rice, 200 g ai/ha): injured
Percent rice injury Cybonet [1]: 41 A %
Percent rice injury Jupiter ([2]; Jupiter, Oryza sativa (rice), 21 days after treatment): 86 A %
Percent rice injury Jupiter ([2]; Jupiter, Oryza sativa (rice), 28 days after treatment): 79 A %
rice injury, 'Jupiter' ([2]; PRE flooded rice, 200 g ai/ha): injured
Percent rice injury Jupiter [2]: 60 A %
rice injury, 'Taggart' ([3]; PRE flooded rice, 200 g ai/ha): injured
Percent rice injury Taggart ([3]; Taggart, Oryza sativa (rice), 21 days after treatment): 76 A %
Percent rice injury Taggart ([3]; Taggart, Oryza sativa (rice), 28 days after treatment): 71 A %
Percent rice injury Taggart [3]: 58 A %
red rice control (red rice (Oryza sativa) [4]; PRE flooded rice): failed to control
Percent red rice control (red rice (Oryza sativa) [4]; 14 DAT): 56 C %
Percent red rice control (red rice (Oryza sativa) [4]; 21 DAT): 59 B %
Percent red rice control (red rice (Oryza sativa) [4]; 28 DAT): 52 B %
Percent rice injury Cybonet ([5]; 14 days after treatment): 35 A %
Percent rice injury Cybonet ([5]; 21 days after treatment): 39 A %
Percent rice injury Cybonet ([5]; 28 days after treatment): 43 A %
rice injury, 'Cybonee' ([5]; PRE dryland rice, 200 g ai/ha): injured
Percent rice injury Jupiter ([6]; 14 days after treatment): 31 A %
Percent rice injury Jupiter ([6]; 21 days after treatment): 41 A %
Percent rice injury Jupiter ([6]; 28 days after treatment): 44 A %
rice injury, 'Jupiter' ([6]; PRE dryland rice, 200 g ai/ha): injured
rice injury, 'Taggart' ([7]; PRE dryland rice, 200 g ai/ha): injured
Percent rice injury Taggart ([7]; 14 days after treatment): 40 A %
Percent rice injury Taggart ([7]; 21 days after treatment): 60 A %
Percent rice injury Taggart ([7]; 28 days after treatment): 66 A %
red rice control (red rice (Oryza sativa) [8]; PRE dryland rice): failed to control
Percent red rice control (red rice (Oryza sativa) [8]; 14 DAT): 38 C %
Percent red rice control (red rice (Oryza sativa) [8]; 21 DAT): 50 D %
Percent red rice control (red rice (Oryza sativa) [8]; 28 DAT): 46 C %
